Laboratory results as given in patent EP4703354A1, “COMPOUND AS CCR6 ANTAGONIST, AND PHARMACEUTICAL COMPOSITION AND USE THEREOF” (Wuhan Createrna Science and Technology Co.,Ltd., priority 2023, dated 2024).

Experiments:
[1] = target: T1, human CCR6 (Homo sapiens, UniProt P51684); assay: human CCR6 calcium flux activity (FLIPR, HEK293 cells stably expressing human CCR6, CCL20 stimulation); assay type: cell-based; conditions: HEK293 cells stably expressing human CCR6, EC80 human MIP-3 alpha/CCL20; read-out: CCR6 inhibitory activity, IC50
T1 construct: expressed in transfected cells; host or cells: HEK293
T1 sequence (P51684 1-374): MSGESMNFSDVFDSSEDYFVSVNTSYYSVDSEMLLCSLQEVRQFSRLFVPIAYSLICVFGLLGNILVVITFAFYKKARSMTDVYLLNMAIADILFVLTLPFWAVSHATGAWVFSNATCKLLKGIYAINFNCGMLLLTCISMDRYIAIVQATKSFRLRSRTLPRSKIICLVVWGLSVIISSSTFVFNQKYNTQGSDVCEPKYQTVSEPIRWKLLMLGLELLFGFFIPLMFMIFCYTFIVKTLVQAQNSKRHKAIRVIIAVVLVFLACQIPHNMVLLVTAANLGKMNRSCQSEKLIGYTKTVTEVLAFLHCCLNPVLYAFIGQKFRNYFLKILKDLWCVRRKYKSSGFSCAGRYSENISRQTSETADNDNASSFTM
Method: The activity of the compounds was evaluated using HEK293 cells stably expressing human CCR6 via the FLIPR platform. A 384-well black cell culture plate (Greiner, 781946) was used, with a seeding density of 20,000 cells/well, and incubated overnight at 37°C in a 5% CO2 incubator. The culture medium in the cell plate wells was removed, and 20 µL of Fluo-4 Direct™ Calcium Assay Buffer (Invitrogen, F10471, Component C), 20 µL of 2× Fluo-4 Direct™ Calcium Assay Reagent (Invitrogen, F10471, Component A) working solution, and 10 µL of 6× test compound working solution were sequentially added to each well. The cell plate was incubated in a 37 °C, 5% CO2 incubator for 50 min, followed by a 10 min incubation at room temperature. Additionally, a 6×EC80 human MIP-3 alpha/CCL20 (MCE, HY-P7262) working solution was prepared. After the incubation was completed, 10 µL/well of the 6×EC80 human MIP-3 alpha/CCL20 working solution was transferred to the cell plate using a FLIPR instrument, and the fluorescence signal changes at an excitation wavelength of 494 nm and an emission wavelength of 516 nm were recorded over 90 seconds. The difference between the maximum fluorescence signal (RFUMax) and the minimum fluorescence signal (RFUMin) was used as the output signal. The compound inhibition rate and the log value of the compound concentration were calculated, and a four-parameter fitting analysis was performed using GraphPad Prism 8 software to obtain the IC50 value of the test compound.

[2] = in vivo pharmacokinetic study in SD rats; conditions: male, rat, plasma; for bioavailability: 1 mg/kg PO vs 1 mg/kg IV, read-out: Oral bioavailability F (%)
Method: 2.2.1 Rats: SD rats, SPF grade, 6 rats per compound, male, body weight range 180-200 g.
2.2.2 Housing conditions: The animals were housed in an SPF-grade animal facility with free access to food and water, three per cage, under a 12/12-hour light/dark cycle (7:00 am/7:00 pm), at a temperature of 23 ± 3°C.
2.2.3 Drug preparation: The compound was precisely weighed, mixed with the required volume of 1% Tween 80, vortexed for 2 min, and then sonicated for 5 min until no visible particles remained. The mixture was subsequently stirred on a magnetic stirrer for 20 min, and the middle layer of the drug solution was collected for administration. For the IV group, the compound was accurately weighed, dissolved in the required volume of 50% PEG400, sonicated for 10 min, and vortexed until clear before administration.
The rats were randomly divided into 2 groups based on body weight, with 3 rats per compound per group. Group 1 was administered a single oral gavage dose (fasted), and Group 2 was administered a single tail vein bolus injection. Blood collection time points: for the po group, blood was collected at 0.167 h, 0.5 h, 1 h, 2 h, 3 h, 4 h, 6 h, and 8 h; for the iv group, blood was collected at 0.033 h, 0.167 h, 0.5 h, 1 h, 2 h, 4 h, 6 h, and 8 h.
After administration to the rats, blood was collected from the orbital venous plexus according to the sampling time points. Approximately 0.2-0.3 mL of blood was collected at each time point into anticoagulant EP tubes (containing 4 µL of EDTA-K2, 375 mg/mL, dried at 50°C). The tubes were slowly inverted up and down three times and stored in an ice box (for no more than 30 minutes). Centrifugation was performed at 4°C at 3000 × g for 10 minutes, and the supernatant was transferred to labeled EP tubes for bioanalytical testing. If testing could not be performed on the same day, the samples were stored at -80°C until analysis (care was taken to avoid multiple freeze/thaw cycles).
The data were analyzed using WinNonlin via a non-compartmental model to obtain PK parameters (Cmax, AUC0-last, AUCinf, T1/2, etc., selected based on different routes of administration). For specific data, please refer to Table 2. Table 2. PK experimental results of compounds in SD rats

IC50 [1] [µM]	further results	Structure (SMILES)
0.196	–	Cc1cncnc1C(Nc1c(Nc2ccnc(C(=O)N(C)C)c2O)c(=O)c1=O)C1(C)CCCC1 (stereo not shown) [compound 052, 3-hydroxy-N,N-dimethyl-4-((2-(((1-methylcyclopentyl)(5-methylpyrimidin-4-yl)methyl)amino)-3,4-dioxocyclobut-1-en-1-yl)amino)picolinamide]
0.0136	–	Cc1cccnc1[C@H](Nc1c(Nc2ccnc(C(=O)N3CCOCC3)c2O)c(=O)c1=O)C1(C)CCCC1 [compound 059, (R)-3-((3-hydroxy-2-(morpholine-4-carbonyl)pyridin-4-yl)amino)-4-(((1-methylcyclopentyl)(3-methylpyridin-2-yl)methyl)amino)cyclobut-3-ene-1,2-dione]
0.152	–	Cc1cnc([C@H](Nc2c(Nc3ccnc(C(=O)N(C)C)c3O)c(=O)c2=O)C2(C)CCCC2)c(C)c1 [compound 061, (R)-4-((2-(((3,5-dimethylpyridin-2-yl)(1-methylcyclopentyl)methyl)amino)-3,4-dioxocyclobut-1-en-1-yl)amino)-3-hydroxy-N,N-dimethylpicolinamide]
0.0176	bioavailability [2]: 39.8%; AUC(0-t) ([2]; 1 mg/kg, IV): 683 ng·h/mL; Cmax ([2]; 1 mg/kg, IV): 2280 ng/mL; AUC(0-t) ([2]; 1 mg/kg, PO): 272 ng·h/mL; Cmax ([2]; 1 mg/kg, PO): 158 ng/mL	Cc1cccnc1[C@H](Nc1c(Nc2ccnc(C(=O)N(C)C)c2O)c(=O)c1=O)C12CC(C1)C2 [compound 077, (R)-4-((2-((bicyclo[1.1.1]pentan-1-yl(3-methylpyridin-2-yl)methyl)amino)-3,4-dioxocyclobut-1-en-1-yl)amino)-3-hydroxy-N,N-dimethylpicolinamide]
0.0173	bioavailability [2]: 42.5%; AUC(0-t) ([2]; 1 mg/kg, IV): 1180 ng·h/mL; Cmax ([2]; 1 mg/kg, IV): 3670 ng/mL; AUC(0-t) ([2]; 1 mg/kg, PO): 499 ng·h/mL; Cmax ([2]; 1 mg/kg, PO): 566 ng/mL; half-life ([2]; 1 mg/kg, PO): 2.01 h	Cc1cccnc1[C@H](Nc1c(Nc2ccnc(C(=O)N(C)C)c2O)c(=O)c1=O)C1(C)CC(F)(F)C1 [compound 079, (R)-4-((2-(((3,3-difluoro-1-methylcyclobutyl)(3-methylpyridin-2-yl)methyl)amino)-3,4-dioxocyclobut-1-en-1-yl)amino)-3-hydroxy-N,N-dimethylpicolinamide]
0.0736	–	Cc1cccnc1[C@H](Nc1c(Nc2ccc(C)c(C(=O)N(C)C)c2O)c(=O)c1=O)C1(C)CCCC1 [compound 103, (R)-2-hydroxy-N,N,6-trimethyl-3-((2-(((1-methylcyclopentyl)(3-methylpyridin-2-yl)methyl)amino)-3,4-dioxocyclobut-1-en-1-yl)amino)benzamide]
0.004	–	Cc1cccnc1[C@H](Nc1c(Nc2ccc(F)c(C(=O)N(C)C)c2O)c(=O)c1=O)C1(C)CCCC1 [compound 104, (R)-6-fluoro-2-hydroxy-N,N-dimethyl-3-((2-(((1-methylcyclopentyl)(3-methylpyridin-2-yl)methyl)amino)-3,4-dioxocyclobut-1-en-1-yl)amino)benzamide]
0.183	–	CN(C)C(=O)c1nccc(Nc2c(N[C@@H](C#Cc3ccccn3)C3(C)CCCC3)c(=O)c2=O)c1O [compound 118, (R)-3-hydroxy-N,N-dimethyl-4-((2-((1-(1-methylcyclopentyl)-3-(pyridin-2-yl)prop-2-yn-1-yl)amino)-3,4-dioxocyclobut-1-en-1-yl)amino)picolinamide]
0.0862	–	Cc1ccc(F)nc1C(Nc1c(Nc2ccnc(C(=O)N(C)C)c2O)c(=O)c1=O)C1(C)CC2CC2C1 (stereo not shown) [compound 121, 4-((2-(((6-fluoro-3-methylpyridin-2-yl)(3-methylbicyclo[3.1.0]hexan-3-yl)methyl)amino)-3,4-dioxocyclobut-1-en-1-yl)amino)-3-hydroxy-N,N-dimethylpicolinamide]
0.181	–	Cc1cccnc1C(Nc1c(Nc2ccnc(C(=O)N(C)C)c2O)c(=O)c1=O)C1(C)CC2CC2C1 (stereo not shown) [compound 122, 3-hydroxy-N,N-dimethyl-4-((2-(((3-methylbicyclo[3.1.0]hexan-3-yl)(3-methylpyridin-2-yl)methyl)amino)-3,4-dioxocyclobut-1-en-1-yl)amino)picolinamide]
0.265	–	Cc1cccnc1C(Nc1c(Nc2ccnc(C(=O)N(C)C)c2O)c(=O)c1=O)C1(C)CCC2CC21 (stereo not shown) [compound 123, 3-hydroxy-N,N-dimethyl-4-((2-(((2-methylbicyclo[3.1.0]hexan-2-yl)(3-methylpyridin-2-yl)methyl)amino)-3,4-dioxocyclobut-1-en-1-yl)amino)picolinamide]
